Measured values reported in patent US12414932B2, “Arsinothricin and methods of treating infections using arsinothricin” (priority 2018, dated 2025).
Where two headings read alike, the source gives them in different places.

Experiments:
E. coli AW3110 = experiment: microbe, parasite or virus in culture; type: cell-based, Escherichia coli; settings: for IC50: read-out: concentration giving 50% inhibition
P. putida Aars1,2 = experiment: microbe, parasite or virus in culture; type: cell-based, Pseudomonas putida; settings: for IC50: read-out: concentration giving 50% inhibition
[1] = target: phosphinothricin N-acetyltransferase (SvPAT) (Streptomyces viridochromogenes, UniProt Q57146); experiment: N-acetyltransferase assay (DTNB) with SvPAT; type: biochemical, Streptomyces viridochromeogenes; settings: as substrate of PAT (SvPAT)
PpArsN1 = PpArsN1 (Pseudomonas putida, UniProt Q88LK7); settings: for PpArsN1 Specific activity: Substrate 50 μM, 37° C.
[2] = target: glutamine synthetase (GS) from E. coli (Escherichia coli, UniProt P0A9C5); experiment: biochemical
Mycobacterium bovis BCG = type: cell-based

Chain of PpArsN1 (Q88LK7 1-186): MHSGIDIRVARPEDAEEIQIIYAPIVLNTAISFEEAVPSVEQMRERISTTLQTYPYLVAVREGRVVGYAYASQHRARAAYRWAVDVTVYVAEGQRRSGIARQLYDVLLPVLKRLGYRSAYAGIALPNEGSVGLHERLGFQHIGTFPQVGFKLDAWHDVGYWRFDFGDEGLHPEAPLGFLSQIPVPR
Chain of phosphinothricin N-acetyltransferase (SvPAT) (Q57146 whole entry, looked up): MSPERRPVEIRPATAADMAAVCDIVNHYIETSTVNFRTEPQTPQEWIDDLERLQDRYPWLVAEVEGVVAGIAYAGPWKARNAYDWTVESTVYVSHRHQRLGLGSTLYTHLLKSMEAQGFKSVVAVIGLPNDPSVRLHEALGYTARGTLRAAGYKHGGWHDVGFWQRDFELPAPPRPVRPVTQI
Chain of glutamine synthetase (GS) from E. coli (P0A9C5 2-469): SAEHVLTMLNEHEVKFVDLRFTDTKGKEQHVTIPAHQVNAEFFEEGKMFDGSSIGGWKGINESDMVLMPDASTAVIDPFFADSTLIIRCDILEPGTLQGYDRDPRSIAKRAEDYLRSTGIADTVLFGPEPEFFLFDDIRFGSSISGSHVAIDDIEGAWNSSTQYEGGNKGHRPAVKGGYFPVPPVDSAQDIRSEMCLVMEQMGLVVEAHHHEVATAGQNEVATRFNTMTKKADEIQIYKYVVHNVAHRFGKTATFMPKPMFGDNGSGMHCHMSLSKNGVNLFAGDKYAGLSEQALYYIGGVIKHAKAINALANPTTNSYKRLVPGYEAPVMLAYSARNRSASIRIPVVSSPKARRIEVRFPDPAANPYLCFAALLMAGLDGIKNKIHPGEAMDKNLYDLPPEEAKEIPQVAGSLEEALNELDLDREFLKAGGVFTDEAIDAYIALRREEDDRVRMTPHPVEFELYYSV

Molecule	IC50 (E. coli AW3110; Escherichia coli, AW3110, 24 h)	IC50 (P. putida Aars1,2; Pseudomonas putida, 24 h)	Kcat [1]	PpArsN1 Specific activity (PpArsN1)	Ki [2]	concentration giving nearly complete inhibition (E. coli AW3110)	effectiveness as an antibiotic compared with PT (E. coli AW3110)	toxicity (growth inhibition) compared with As(III) and MAs(III) (E. coli AW3110)	IC50 (E. coli AW3110)	concentration giving nearly complete inhibition (P. putida Aars1,2)	effectiveness as an antibiotic compared with PT (P. putida Aars1,2)	IC50 (P. putida Aars1,2)	inhibitory effect on mycobacterial growth (Mycobacterium bovis BCG)	Km [1]	cytotoxicity in human monocytes (THP-1 cells)	affinity of PpArsN1 compared with PT (PpArsN1)	Kcat (PpArsN1; as substrate of PpArsN1)	Km (PpArsN1; as substrate of PpArsN1)	substrate quality for PpArsN1 (PpArsN1)
CP(=O)(O)CCC(N)C(=O)O (racemic) [PT, phosphinothricin, reference compound]	100000 nM	100000 nM	3.1 ± 0.0 s⁻¹	13.9 ± 1.9 nmol/s/mg	400 ± 150 nM	–	–	–	–	–	–	–	–	–	–	–	–	–	–
C[As](=O)(O)CC[C@H](N)C(=O)O [AST, 2-amino-4-(hydroxymethylarsinoyl) butanoate]	–	–	2.3 ± 0.1 s⁻¹	49.6 ± 0.8 nmol/s/mg	–	20 µM	approximately 30 fold	considerably more inhibitory than inorganic As (III) and is similar to that of highly toxic trivalent methylarsenite (MAs(III))	~3000 nM	20 µM	approximately 30 fold	~3000 nM	comparable with MSO and much higher than PT	12 ± 2 µM	benign and much less toxic compared to inorganic arsenite	100 fold	1.7 ± 0.2 s⁻¹	11 ± 3 µM	–
methionine sulfoximine [MSO, reference compound]	–	–	–	2.1 ± 0.1 nmol/s/mg	–	–	–	–	–	–	–	–	–	–	–	–	–	–	poor substrate
